Laboratory results published in US9561231B2 (AbbVie Inc., priority 2012, dated 2017).

Columns and labels:
[1] = biological target: T1, first (BD1: amino acids K57-E168) bromodomain of BRD4 (Homo sapiens, UniProt O60885); assay: TR-FRET bromodomain binding assay, BRD4 BD1; details: TR-FRET assay protocol (A-G, compound concentration range); Ki calculated from IC50, probe Kd and probe concentration; read-out: TR-FRET Binding Ki: BRD4 (BDI_K57-E168)
T1 construct: His-tagged first (BD1: amino acids K57-E168)
How it was run: (§1)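 His-tagged BRD4 BD1 (K57-E168) or BD2 ([…]) displacing an Alexa647-labelled BET-inhibitor probe in 20 mM sodium phosphate pH 6.0, 50 mM NaCl, 1 mM EDTA, 0.01% Triton X-100, 1 mM DTT.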

[2] = test system: breast cancer cell line MX-1; assay: MX-1 cell line proliferation assay (3-day); type: cell-based; details: Homo sapiens, MX1; MX-1 cells, 72 h incubation, Cell Titer Glo; read-out: Cellular proliferation: EC50
How it was run: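 MX-1 cells in RPMI/10% FBS, plated 5000/well overnight, then exposed to compound at final 3 to 0.0001 μM (3-fold series) for 3 days at 37° C. Cell Titer Glo luminescence normalized to DMSO-treated cells; EC50 from sigmoidal curve fit.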

[3] = biological target: T2, second (BD2: amino acids E352-E168) bromodomain of BRD4 (Homo sapiens, UniProt O60885); assay: TR-FRET bromodomain binding assay, BRD4 BD2; details: TR-FRET assay protocol (A-G, compound concentration range); Ki calculated from IC50, probe Kd and probe concentration; read-out: TR-FRET Binding Ki: BRD4 (BDII_E352-M457)
T2 construct: protocol
How it was run: as §1

SMILES	Ki [1] [nM]	EC50 [2] [nM]	Ki [3] [nM]
Cn1nc(-c2ccccc2Oc2ccccc2)c(-c2ccc(S(N)(=O)=O)cc2)cc1=O [Example 112, 4-[1-methyl-6-oxo-3-(2-phenoxyphenyl)-1,6-dihydropyridazin-4-yl]benzenesulfonamide]	138	1280	181
CN1CCN(c2ccc(-c3cc(=O)n(C)nc3-c3ccccc3Oc3ccccc3)cc2)CC1 [Example 161, 2-methyl-5-[4-(4-methylpiperazin-1-yl)phenyl]-6-(2-phenoxyphenyl)pyridazin-3(2H)-one]	26.3	244	24.9
CC(C)N1CCN(c2ccc(-c3cc(=O)n(C)nc3-c3ccccc3Oc3ccccc3)cc2)CC1 [Example 180, 2-methyl-6-(2-phenoxyphenyl)-5-{4-[4-(propan-2-yl)piperazin-1-yl]phenyl}pyridazin-3(2H)-one]	44.5	372	67.7
Cn1nc(-c2ccccc2Oc2ccccc2)c(-c2cccc(CC#N)c2)cc1=O [Example 193, {3-[1-methyl-6-oxo-3-(2-phenoxyphenyl)-1,6-dihydropyridazin-4-yl]phenyl}acetonitrile]	167	1290	1010
CC(=O)c1cc(=O)n(C)nc1-c1ccccc1Oc1ccccc1 [Example 221, 5-acetyl-2-methyl-6-(2-phenoxyphenyl)pyridazin-3(2H)-one]	976	7200	517
COC(=O)CS(=O)(=O)Nc1ccc(Oc2ccccc2)c(-c2ccc(=O)n(C)c2)c1 [Example 225, methyl {[3-(1-methyl-6-oxo-1,6-dihydropyridin-3-yl)-4-phenoxyphenyl]sulfamoyl}acetate]	152	10000	107
Cn1cc(-c2cc(NS(=O)(=O)CC(=O)O)ccc2Oc2ccccc2)ccc1=O [Example 226, {[3-(1-methyl-6-oxo-1,6-dihydropyridin-3-yl)-4-phenoxyphenyl]sulfamoyl}acetic acid]	271	10000	1130
Cn1cnc(S(=O)(=O)Nc2ccc(Oc3ccccc3)c(-c3ccc(=O)n(C)c3)c2)c1 [Example 227, 1-methyl-N-[3-(1-methyl-6-oxo-1,6-dihydropyridin-3-yl)-4-phenoxyphenyl]-1H-imidazole-4-sulfonamide]	157	> 3000	420
Cn1cc(-c2cc(NS(C)(=O)=O)ccc2Oc2ccc(C(F)(F)F)cc2)ccc1=O [Example 231, N-{3-(1-methyl-6-oxo-1,6-dihydropyridin-3-yl)-4-[4-(trifluoromethyl)phenoxy]phenyl}methanesulfonamide]	44.6	911	539
Cn1cc(-c2cc(NS(C)(=O)=O)ccc2Oc2ccc(F)cc2)ccc1=O [Example 232, N-[4-(4-fluorophenoxy)-3-(1-methyl-6-oxo-1,6-dihydropyridin-3-yl)phenyl]methanesulfonamide]	27.8	357	101
Cn1cc(-c2cc(NS(C)(=O)=O)ccc2Oc2cccnc2)ccc1=O [Example 234, N-[3-(1-methyl-6-oxo-1,6-dihydropyridin-3-yl)-4-(pyridin-3-yloxy)phenyl]methanesulfonamide]	21.3	1290	216
Cn1cc(-c2cc(NS(C)(=O)=O)ccc2Oc2ccccc2C#N)ccc1=O [Example 237, N-[4-(2-cyanophenoxy)-3-(1-methyl-6-oxo-1,6-dihydropyridin-3-yl)phenyl]methanesulfonamide]	16.2	1380	227
Cn1cc(-c2cc(NS(C)(=O)=O)ccc2Oc2cc(F)cc(F)c2)ccc1=O [Example 242, N-[4-(3,5-difluorophenoxy)-3-(1-methyl-6-oxo-1,6-dihydropyridin-3-yl)phenyl]methanesulfonamide]	45	556	338
Cn1cc(-c2cc(NS(C)(=O)=O)ccc2Oc2cccc(F)c2)ccc1=O [Example 246, N-[4-(3-fluorophenoxy)-3-(1-methyl-6-oxo-1,6-dihydropyridin-3-yl)phenyl]methanesulfonamide]	43.1	238	132

Further molecules by falling Ki [1], results first:

Ki [1] [nM]	EC50 [2] [nM]	Ki [3] [nM]	SMILES
24300	16400	1910	COC(=O)CCc1cc(=O)n(C)nc1-c1ccccc1Oc1ccccc1 [Example 220, methyl 3-[1-methyl-6-oxo-3-(2-phenoxyphenyl)-1,6-dihydropyridazin-4-yl]propanoate]
7250	5500	308	COC(=O)/C=C/c1cc(=O)n(C)nc1-c1ccccc1Oc1ccccc1 [Example 219, methyl (2E)-3-[1-methyl-6-oxo-3-(2-phenoxyphenyl)-1,6-dihydropyridazin-4-yl]prop-2-enoate]
778	9700	1140	COC(=O)c1cc(=O)n(C)nc1-c1ccccc1Oc1ccccc1 [Example 218, methyl 1-methyl-6-oxo-3-(2-phenoxyphenyl)-1,6-dihydropyridazine-4-carboxylate]
635	4810	872	Cn1cc(-c2ccccc2Oc2ccccc2)ccc1=O [Example 223, 1-methyl-5-(2-phenoxyphenyl)pyridin-2(1H)-one]
324	1430	162	CNc1ccc(-c2cc(=O)n(C)nc2-c2ccccc2Oc2ccccc2)cc1 [Example 191, 2-methyl-5-[4-(methylamino)phenyl]-6-(2-phenoxyphenyl)pyridazin-3(2H)-one]
249	> 3000	139	CNC(=O)c1ccc(-c2cc(=O)n(C)nc2-c2ccccc2Oc2ccccc2)cc1 [Example 127, N-methyl-4-[1-methyl-6-oxo-3-(2-phenoxyphenyl)-1,6-dihydropyridazin-4-yl]benzamide]
213	384	259	Cn1nc(-c2ccccc2Oc2ccccc2)c(-c2ccc(N3CCOCC3)cc2)cc1=O [Example 149, 2-methyl-5-[4-(morpholin-4-yl)phenyl]-6-(2-phenoxyphenyl)pyridazin-3(2H)-one]
142	> 3000	154	Cn1cc(-c2cc(NS(=O)(=O)c3c[nH]cn3)ccc2Oc2ccccc2)ccc1=O [Example 228, N-[3-(1-methyl-6-oxo-1,6-dihydropyridin-3-yl)-4-phenoxyphenyl]-1H-imidazole-4-sulfonamide]
135	615	63.6	Cn1nc(-c2ccccc2Oc2ccccc2)c(-c2ccc(NS(C)(=O)=O)cc2)cc1=O [Example 119, N-{4-[1-methyl-6-oxo-3-(2-phenoxyphenyl)-1,6-dihydropyridazin-4-yl]phenyl}methanesulfonamide]
116	481	282	Cn1cc(-c2cc(NS(C)(=O)=O)ccc2Oc2cccc(C(F)(F)F)c2)ccc1=O [Example 244, N-{3-(1-methyl-6-oxo-1,6-dihydropyridin-3-yl)-4-[3-(trifluoromethyl)phenoxy]phenyl}methanesulfonamide]
115	279	257	Cn1cc(-c2cc(NS(C)(=O)=O)ccc2Oc2cccc(Cl)c2)ccc1=O [Example 243, N-[4-(3-chlorophenoxy)-3-(1-methyl-6-oxo-1,6-dihydropyridin-3-yl)phenyl]methanesulfonamide]
78.6	1010	439	Cn1cc(-c2cc(NS(C)(=O)=O)ccc2Oc2cccc(C#N)c2)ccc1=O [Example 245, N-[4-(3-cyanophenoxy)-3-(1-methyl-6-oxo-1,6-dihydropyridin-3-yl)phenyl]methanesulfonamide]
56	395	48	CNS(=O)(=O)Nc1ccc(Oc2ccccc2)c(-c2ccc(=O)n(C)c2)c1 [Example 230, N-methyl-N′-[3-(1-methyl-6-oxo-1,6-dihydropyridin-3-yl)-4-phenoxyphenyl]sulfuric diamide]
32.6	138	39.8	Cn1cc(-c2cc(NS(C)(=O)=O)ccc2Oc2ccccc2F)ccc1=O [Example 239, N-[4-(2-fluorophenoxy)-3-(1-methyl-6-oxo-1,6-dihydropyridin-3-yl)phenyl]methanesulfonamide]
31.8	507	21.8	Cn1cc(-c2cc(NS(=O)(=O)CC(F)(F)F)ccc2Oc2ccccc2)ccc1=O [Example 229, 2,2,2-trifluoro-N-[3-(1-methyl-6-oxo-1,6-dihydropyridin-3-yl)-4-phenoxyphenyl]ethanesulfonamide]
29.2	643	49.9	COc1ccccc1Oc1ccc(NS(C)(=O)=O)cc1-c1ccc(=O)n(C)c1 [Example 238, N-[4-(2-methoxyphenoxy)-3-(1-methyl-6-oxo-1,6-dihydropyridin-3-yl)phenyl]methanesulfonamide]
14.2	501	81.6	Cn1cc(-c2cc(NS(C)(=O)=O)ccc2Oc2ccccc2C(F)(F)F)ccc1=O [Example 236, N-{3-(1-methyl-6-oxo-1,6-dihydropyridin-3-yl)-4-[2-(trifluoromethyl)phenoxy]phenyl}methanesulfonamide]
